Measurements from article PMC7129073 (Clinical Microbiology and Infection, 2015).
Values after ≈ are worked out from the molar mass of the structure shown. Where two headings read alike, the source gives them in different places.

Tests used:
[1] = test system: Salmonella, other 49 serotypes; assay: Disk diffusion, food isolates Spain; type: cell-based; details: n = 115
[2] = test system: K. oxytoca isolate; assay: MIC of qnr-positive SHV-12 producer; type: cell-based; details: Klebsiella oxytoca
[3] = test system: Shigella spp.; assay: Disk diffusion, stool isolates Tehran; type: cell-based; details: 96 isolates
[4] = test system: Escherichia coli O157:H7; assay: Kirby-Bauer susceptibility; type: cell-based; details: 30 strains, 1990–2003
[5] = test system: nontyphoidal Salmonella; assay: Agar dilution, isolates from chickens 1998–2004; type: cell-based, Salmonella spp.
[6] = test system: Klebsiella pneumoniae (KPN)
[7] = test system: Escherichia coli (ECO); assay: Broth microdilution; type: cell-based
[8] = test system: Proteus mirabilis (PMI); assay: Broth microdilution; type: cell-based
[9] = test system: Enterobacter cloacae (ECL); assay: Broth microdilution; type: cell-based
[10] = test system: B. ovatus; assay: NCCLS broth microdilution, beta-lactamase positive isolates; type: cell-based, Bacteroides ovatus; details: 48 hr
[11] = test system: B. distasonis; assay: as above; type: cell-based, Bacteroides distasonis; details: 48 hr
[12] = test system: B. thetaiotaomicron; assay: as above; type: cell-based, Bacteroides thetaiotaomicron; details: 48 hr
[13] = test system: B. vulgatus; assay: as above; type: cell-based, Bacteroides vulgatus; details: 48 hr
[14] = test system: B. fragilis; assay: as above; type: cell-based, Bacteroides fragilis; details: 48 hr
[15] = test system: N.gonorrhoeae; assay: microbe, parasite or virus in culture; type: cell-based; details: Neisseria gonorrhoeae
[16] = test system: Acinetobacter; assay: Disk diffusion; type: cell-based; details: 37 isolates selected as resistant to beta-lactams
[17] = test system: inducible Enterobacteriaceae; assay: SMART 2003, intraabdominal isolates; type: cell-based
[18] = test system: S. pneumoniae; assay: PROTEKT Italy, NCCLS microdilution; type: cell-based, Streptococcus pneumoniae
[19] = test system: Nocardia spp.; assay: E-test on Mueller Hinton agar, 81 clinical isolates; type: cell-based; details: Nocardia
[20] = test system: E. coli; assay: Resistance of UTI isolates of renal transplant recipients; type: cell-based, Escherichia coli; details: 75 isolates
[21] = test system: Klebsiella; assay: SMART 2003 Europe, microdilution; type: cell-based, Klebsiella spp.; details: 341 isolates
[22] = test system: viridans group streptococci (VGS); assay: MIC; type: cell-based
[23] = test system: Enterobacteriaceae; assay: SMART 2003 Europe, microdilution; type: cell-based; details: 1948 isolates
[24] = test system: Salmonella enterica; assay: VITEK, NCCLS microdilution and disc diffusion of quinolones; type: cell-based
[25] = test system: Streptococcus agalactiae strains P0162 and P0425; assay: Microdilution; type: cell-based
[26] = test system: Pseudomonas putida clinical isolates; assay: Agar dilution MIC; type: cell-based
[27] = test system: Gram-negative rods; assay: Microscan MIC, blood culture isolates; type: cell-based
[28] = test system: Pseudomonas aeruginosa; assay: MIC, strains from cystic fibrosis patients; details: by MIC
[29] = test system: K. oxytoca; assay: E-test susceptibility; type: cell-based, Klebsiella oxytoca
[30] = test system: E. coli; assay: E-test susceptibility; type: cell-based, Escherichia coli
[31] = test system: K. pneumoniae; assay: E-test susceptibility; type: cell-based, Klebsiella pneumoniae
[32] = test system: K. pneumoniae; assay: MIC; type: cell-based, Klebsiella pneumoniae; details: Klebsiella pneumoniae
[33] = test system: Pseudomonas spp.; assay: MIC; type: cell-based
[34] = test system: E. coli; assay: SMART 2003 Europe, microdilution; type: cell-based, Escherichia coli; details: 1106 isolates
[35] = test system: N. farcinica strain; assay: E-test on Mueller-Hinton agar; type: cell-based; details: Nocardia farcinica
[36] = test system: Streptococcus pneumoniae; assay: BSAC agar dilution, lower respiratory isolates UK and Ireland; type: cell-based
[37] = test system: Salmonella serotype Typhimurium; assay: Disk diffusion, food isolates Spain; type: cell-based; details: n = 53
[38] = test system: H. influenzae (HI); assay: SENTRY Brazil, NCCLS broth microdilution; type: cell-based, Haemophilus influenzae
[39] = test system: S. pyogenes; assay: Broth microdilution; type: cell-based, Streptococcus pyogenes; details: 212 isolates
[40] = test system: Salmonella spp.; assay: Agar dilution susceptibility, gastroenteritis isolates Cuba; type: cell-based; details: 34 strains, 2002
[41] = test system: S. pneumoniae (SPN); assay: SENTRY Brazil, NCCLS broth microdilution; type: cell-based, Streptococcus pneumoniae
[42] = test system: enterococci; assay: Disk diffusion, urine isolates of BPH patients; details: strains isolated post-operatively
[43] = test system: viridans group streptococci (VgS) and Streptococcus bovis; assay: Broth microdilution and disk diffusion; type: cell-based; details: nine species
[44] = test system: enterococci; assay: Disk diffusion and E-test, faecal isolates of cancer patients; type: cell-based, Enterococcus; details: 38 strains; gentamycin: high level

CCn1cc(C(=O)O)c(=O)c2ccc(C)nc21 [nalidixic acid]
resistance rate (NCCLS M100-S13) [1]: 14%
MIC [2]: 16 µg/mL
sensitive [3]: 96%
resistant strains [4]: 10%
resistance ([5]; Germany (carcass meat)): 9%
resistance [6]; 1984: 12.2%
resistance [6]; 2001: 21.6%
resistance [7]; 1984: 1.6%
resistance [7]; 2001: 19.2%
resistance [8]; 1984: 2.6%
resistance [8]; 2001: 15.9%
resistance [9]; 1984: 2.0%
resistance [9]; 2001: 17.5%

C[C@]1(Cn2ccnn2)[C@H](C(=O)O)N2C(=O)C[C@H]2S1(=O)=O [Tz, Tazobactam]
isolates inhibited at 8 mg/L [10]: 56%
isolates inhibited at 16 mg/L [10]: 86%
isolates inhibited at =/< 4 mg/L [10]: 23%
isolates inhibited at 8 mg/L [11]: 50%
isolates inhibited at 16 mg/L [11]: 100%
isolates inhibited at =/< 4 mg/L [11]: 25%
isolates inhibited at 16 mg/L [12]: 100%
isolates inhibited at =/< 4 mg/L [12]: 42%
isolates inhibited at 8 mg/L [13]: 83%
isolates inhibited at 16 mg/L [13]: 100%
isolates inhibited at =/< 4 mg/L [13]: 50%
isolates inhibited at 8 mg/L [14]: 97%
isolates inhibited at 16 mg/L [14]: 98%
isolates inhibited at =/< 4 mg/L [14]: 86%

CO/N=C(\C(=O)N[C@@H]1C(=O)N2C(C(=O)O)=C(CSc3nc(=O)c(=O)[nH]n3C)CS[C@H]12)c1csc(N)n1 [ceftriaxone]
MIC ([15]; strain 76mu6): 0.12 µg/mL (≈ 0.216 µM)
MIC ([15]; strain 92mu6): 0.015 µg/mL (≈ 0.027 µM)
MIC ([15]; strain 92mu13): 0.008 µg/mL (≈ 0.0144 µM)
resistant isolates [16]: 75.7%
% susceptible ([17]; A/P (N = 200)): 60%
% susceptible ([17]; EU (N = 354)): 79%
% susceptible ([17]; LA (N=113)): 71%
% susceptible ([17]; NA (N = 163)): 75%
susceptible ([18]; year 1: 2002): 88.9%
susceptible ([18]; year 2: 2003): 93.7%
MIC50 [19]: 8 µg/mL (≈ 14.4 µM)
MIC90 [19]: > 256 µg/mL
sensitive [3]: 100%
rate of resistance [20]: 1%
per cent susceptible [21]: 89%
MIC50 [22]: 0.06 µg/mL (≈ 0.108 µM)
MIC90 [22]: 0.5 µg/mL (≈ 0.902 µM)
per cent susceptible [23]: 91%

CCn1cc(C(=O)O)c(=O)c2cc(F)c(N3CCNCC3)cc21 [norfloxacin]
resistant isolates [16]: 100.0%
MIC [2]: < 0.1 µg/mL
sensitive [3]: 100%
MIC ([24]; read-out: NCCLS MIC, 37 NAL-R strains): 0.54 µg/mL (≈ 1.69 µM)
MIC ([24]; read-out: NCCLS MIC, NAL-S strains): ≤ 0.06 µg/mL
MIC ([24]; read-out: VITEK MIC, 37 strains): 2 µg/mL (≈ 6.26 µM)
MIC ([24]; read-out: VITEK MIC, five strains): < 0.5 µg/mL
MIC ([25]; strain P0162 (ParC Ser79Phe, GyrA Glu85Ala)): > 256 µg/mL
MIC ([25]; strain P0425 (ParC Ser79Phe, GyrA Glu85Lys)): > 256 µg/mL
MIC [26]: > 128 µg/mL

Ampicillin/ Sulbactam [A/S]
resistant isolates [16]: 10.8%
rate of resistance [20]: 34%

C[C@@H](O)[C@H]1C(=O)N2C(C(=O)O)=C(S[C@@H]3CN[C@H](C(=O)N(C)C)C3)[C@H](C)[C@H]12 [meropenem]
susceptible strains (n/N) [27]: 16/16
resistant isolates [16]: 0.0%
% susceptible ([17]; A/P (N = 200)): 100%
% susceptible ([17]; EU (N = 354)): 99%
% susceptible ([17]; LA (N=113)): 98%
% susceptible ([17]; NA (N = 163)): 99%
Susceptible isolates [28]: 96%
Susceptible isolates ([29]; ICU): 100/100%
Susceptible isolates ([29]; non ICU): 100/100%
Susceptible isolates ([30]; ICU, SRGA breakpoints, tigecycline tentative S ≤2 μg/ml): 100%
Susceptible isolates ([30]; non ICU): 99%
Susceptible isolates ([31]; ICU): 100/100%
Susceptible isolates ([31]; non ICU): 100/100%
MIC [32]: 4 to 16 µg/mL (≈ 10.4 to 41.7 µM)
susceptible strains [33]: 98%
per cent susceptible [21]: 99%
per cent susceptible [34]: >99%
per cent susceptible [23]: >99%
MIC [35]: > 32 µg/mL

CN(C)[C@@H]1C(O)=C(C(N)=O)C(=O)[C@@]2(O)C(O)=C3C(=O)c4c(O)cccc4[C@@](C)(O)[C@H]3C[C@@H]12 [tetracycline]
MIC ([15]; strain 76mu6): 8 µg/mL (≈ 18 µM)
MIC ([15]; strain 76mu10): 8 µg/mL (≈ 18 µM)
MIC ([15]; strain 92mu6): 2 µg/mL (≈ 4.5 µM)
MIC ([15]; strain 92mu13): 2 µg/mL (≈ 4.5 µM)
resistance (PEN-NS >0.06, TET-R >1, ERY-R >0.5, CIP-R >2 mg/L) ([36]; Ireland 1999–2000, N 66): 24.2%
resistance (same cut-offs) ([36]; Ireland 2000–2001, N 59): 25.4%
resistance (same cut-offs) ([36]; Ireland 2001–2002, N 68): 16.2%
resistance (same cut-offs) ([36]; Ireland 2002–2003, N 89): 10.1%
resistance (same cut-offs) ([36]; Ireland 2003–2004, N 76): 7.9%
resistance (same cut-offs) ([36]; UK 1999–2000, N 595): 7.2%
resistance (same cut-offs) ([36]; UK 2000–2001, N 608): 6.3%
resistance (same cut-offs) ([36]; UK 2001–2002, N 631): 4.8%
resistance (same cut-offs) ([36]; UK 2002–2003, N 683): 5.7%
resistance (same cut-offs) ([36]; UK 2003–2004, N 709): 6.2%
resistance rate (NCCLS M100-S13) [37]: 72%
resistant isolates [16]: 100.0%
% S [38]; 1998: 96%
% S [38]; 1999: 84%
% S [38]; 2000: 95%
% S [38]; 2001: 95%
% S [38]; 2002: 98%
% S [38]; 2003: 96%
nonsusceptible [39]: 25.9%
resistance ([5]; Belgian collection (caecal samples; Belgium, France, Netherlands)): 33%
resistance [40]: 53%
% S [41]; 1998: 72%
% S [41]; 1999: 75%
% S [41]; 2000: 82%
% S [41]; 2001: 78%
% S [41]; 2002: 86%
% S [41]; 2003: 85%
resistance [42]: 77.8%
% S, range between species [43]: 35.0 – 93.9%
resistant strains [44]: 55%
